Test results as given in PubChem BioAssay AID1919014 (Molecular Pharmacology Branch, DTP, NCI, 2023).
Values joined by “and” are separate entries in the source; they are usually repeats but may differ in a detail not shown here. Equal values may be shown once.

System: NCI-H1341 complex spheroids, percent test/control
Assay: Anticancer human tumor NCI-H1341 cell line growth inhibition [AhR];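 also: spheroids exposed to agents for seven days before readout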
Conditions: for IC50: curve of first compound; for viability, T/C: stronger effect = lower value
Procedure, shortened: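 Spheroids combined tumor cells with HUVEC endothelial cells and human MSCs as stroma. AhR antagonists were paired with standard or investigational drugs, each dosed in half-log steps down from near clinical Cmax, or from 10 microM where Cmax was unknown.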

[1] = second compound 0.1 µM, first compound 0.0316 µM
[2] = second compound 0.1 µM, first compound 0.1 µM
[3] = second compound 0.1 µM, first compound 0.316 µM
[4] = second compound 0.1 µM, first compound 1 µM
[5] = second compound 0.316 µM, first compound 0.0316 µM
[6] = second compound 0.316 µM, first compound 0.1 µM
[7] = second compound 0.316 µM, first compound 0.316 µM
[8] = second compound 0.316 µM, first compound 1 µM
[9] = second compound 1 µM, first compound 0.0316 µM
[10] = second compound 1 µM, first compound 0.1 µM
[11] = second compound 1 µM, first compound 0.316 µM
[12] = second compound 1 µM, first compound 1 µM
[13] = second compound 3.16 µM, first compound 0.0316 µM
[14] = second compound 3.16 µM, first compound 0.1 µM
[15] = second compound 3.16 µM, first compound 0.316 µM
[16] = second compound 3.16 µM, first compound 1 µM
[17] = second compound 10 µM, first compound 0.0316 µM
[18] = second compound 10 µM, first compound 0.1 µM
[19] = second compound 10 µM, first compound 0.316 µM
[20] = second compound 10 µM, first compound 1 µM

CC1COCCN1c1cc(-c2ccnn2C)c2ccnc(-c3ccn[nH]3)c2n1 (stereo unspecified) + Cc1ccccc1N=Nc1ccc(NC(=O)c2ccnn2C)c(C)c1
IC50 (second compound 0.1 µM): 0.0976 µM | IC50 (second compound 0.316 µM): 0.0606 µM | IC50 (second compound 1 µM): 0.113 µM | IC50 (second compound 3.16 µM): 0.0675 µM | IC50 (second compound 10 µM): 0.00913 µM | viability, T/C (second compound 0.1 µM, first compound 0.00316 µM): 98.2% | viability, T/C (second compound 0.1 µM, first compound 0.01 µM): 99.1% | viability, T/C [1]: 74.2% | viability, T/C [2]: 48.5% | viability, T/C [3]: 38.3% | viability, T/C [4]: 26.2% | viability, T/C (second compound 0.316 µM, first compound 0.00316 µM): 104% | viability, T/C (second compound 0.316 µM, first compound 0.01 µM): 102% | viability, T/C [5]: 65.6% | viability, T/C [6]: 39.3% | viability, T/C [7]: 34.8% | viability, T/C [8]: 29% | viability, T/C (second compound 1 µM, first compound 0.00316 µM): 82.6% | viability, T/C (second compound 1 µM, first compound 0.01 µM): 92% | viability, T/C [9]: 70.8% | viability, T/C [10]: 52.6% | viability, T/C [11]: 34.3% | viability, T/C [12]: 25.9% | viability, T/C (second compound 3.16 µM, first compound 0.00316 µM): 84% | viability, T/C (second compound 3.16 µM, first compound 0.01 µM): 72.7% | viability, T/C [13]: 55.1% | viability, T/C [14]: 44.4% | viability, T/C [15]: 40.8% | viability, T/C [16]: 27.6% | viability, T/C (second compound 10 µM, first compound 0.00316 µM): 53.8% | viability, T/C (second compound 10 µM, first compound 0.01 µM): 51% | viability, T/C [17]: 44.3% | viability, T/C [18]: 37.1% | viability, T/C [19]: 30.7% | viability, T/C [20]: 25.6%

COc1cc(C2c3cc4c(cc3C(OC3OC5COC(C)OC5C(O)C3O)C3COC(=O)C23)OCO4)cc(OC)c1O (stereo unspecified)
viability, T/C (compound 0.0316 µM): 98.7% and 93.7% and 88.8% | viability, T/C (compound 0.1 µM): 86.3% and 90.8% and 80.8% | viability, T/C (compound 0.316 µM): 75.5% and 77.2% and 57% | viability, T/C (compound 1 µM): 44.2% and 51.9% and 53.8% | viability, T/C (compound 3.16 µM): 35.1% and 45.4% and 52.8% | viability, T/C (compound 10 µM): 35.9% and 30.7% and 53.1%

O=C(c1cc(Cc2n[nH]c(=O)c3ccccc23)ccc1F)N1CCN(C(=O)C2CC2)CC1 + CC(CO)NC(=O)c1cc(-c2ccc(Cl)cc2)nn(-c2cnn(C)c2)c1=O
IC50 (second compound 0.1 µM): > 10 µM | IC50 (second compound 0.316 µM): > 10 µM | IC50 (second compound 1 µM): > 10 µM | IC50 (second compound 3.16 µM): > 10 µM | IC50 (second compound 10 µM): > 10 µM | viability, T/C [1]: 89.5% | viability, T/C [2]: 98.4% | viability, T/C [3]: 93.7% | viability, T/C [4]: 89.2% | viability, T/C (second compound 0.1 µM, first compound 3.16 µM): 82.4% | viability, T/C (second compound 0.1 µM, first compound 10 µM): 70.6% | viability, T/C [5]: 96.1% | viability, T/C [6]: 93.6% | viability, T/C [7]: 91.6% | viability, T/C [8]: 80.1% | viability, T/C (second compound 0.316 µM, first compound 3.16 µM): 77.1% | viability, T/C (second compound 0.316 µM, first compound 10 µM): 72.7% | viability, T/C [9]: 80.6% | viability, T/C [10]: 105% | viability, T/C [11]: 97.3% | viability, T/C [12]: 81.5% | viability, T/C (second compound 1 µM, first compound 3.16 µM): 86.8% | viability, T/C (second compound 1 µM, first compound 10 µM): 74.6% | viability, T/C [13]: 94.4% | viability, T/C [14]: 90.6% | viability, T/C [15]: 94.8% | viability, T/C [16]: 75.9% | viability, T/C (second compound 3.16 µM, first compound 3.16 µM): 84.2% | viability, T/C (second compound 3.16 µM, first compound 10 µM): 60.7% | viability, T/C [17]: 70.2% | viability, T/C [18]: 77.5% | viability, T/C [19]: 85% | viability, T/C [20]: 65.9% | viability, T/C (second compound 10 µM, first compound 3.16 µM): 71.9% | viability, T/C (second compound 10 µM, first compound 10 µM): 58.6%
